Type in all cases: ADME, organism-based
Common to all, as to conditions: in vivo

Series [1] is described as follows: Half life in CD-1 mouse at 5 mg/kg, po administered as single dose by LC-MS/MS analysis.
Series [2] can be described thus: AUC (0 to infinity) in CD-1 mouse at 5 mg/kg, po administered as single dose by LC-MS/MS analysis. On the set-up: dose 5 mg/kg, route oral, time infinity.
Series [3] can be described thus: Tmax in CD-1 mouse at 5 mg/kg, po administered as single dose by LC-MS/MS analysis.
The nature of series [4]: Cmax in CD-1 mouse at 5 mg/kg, po administered as single dose by LC-MS/MS analysis. The arrangement: dose 5 mg/kg, route oral.
The nature of series [5]: AUC (0 to t) in CD-1 mouse at 5 mg/kg, po administered as single dose by LC-MS/MS analysis.

For orientation: half-life means how long it takes for the measured level to halve. As a reminder, the AUC(0-inf) is the area under the concentration-time curve extrapolated to infinity. The term Tmax denotes the time from dosing to the highest level. What is called Cmax is the highest concentration seen after dosing. A word on the AUC(0-t): it is the area under the concentration-time curve up to a stated or last time point. Low readings indicate low exposure, high ones high exposure. As for `CS(=O)(=O)c1ccc(C(=O)Nc2ccc(Cl)c(-c3ccccn3)c2)c(Cl)c1` [VISMODEGIB], in series [1], the half-life is 5.62 h. This compound also yielded a total exposure AUC(0-inf) in series [2] of 7660 ng·h/mL. For the same compound, the Tmax in series [3] was 1 h. In series [4], the highest level (Cmax) was 854 ng/mL. In series [5], this compound yielded an AUC(0-t) of 4050 ng·h/mL.

The compound `[2H]c1nc(-c2cc(NC(=O)c3ccc(S(C)(=O)=O)cc3Cl)ccc2Cl)c([2H])c([2H])c1[2H]` showed a half-life in series [1] of 8.55 h. In addition, the AUC(0-inf) in series [2] came to 17100 ng·h/mL. In addition, in series [3], the time of peak concentration (Tmax) is 1 h. For the same compound, the Cmax in series [4] turned out to be 1870 ng/mL. In series [5], this compound had an AUC(0-t) of 6510 ng·h/mL.

In series [1], `[2H]c1cc(Cl)c(-c2ccccn2)c([2H])c1NC(=O)c1ccc(S(C)(=O)=O)cc1Cl` had a half-life of 2.82 h. In series [2], this compound came in with an AUC(0-inf) of 8290 ng·h/mL. The Tmax in series [3] was found to be 1 h. Moreover, in series [4], the Cmax is 1610 ng/mL. The area under the curve AUC(0-t) in series [5] was found to be 6280 ng·h/mL.

Regarding `[2H]c1cc(Cl)c(-c2nc([2H])c([2H])c([2H])c2[2H])c([2H])c1NC(=O)c1ccc(S(C)(=O)=O)cc1Cl`, the half-life in series [1] is 2.56 h. In addition, the total exposure AUC(0-inf) in series [2] was determined as 6110 ng·h/mL. Besides, the Tmax in series [3] is 1 h. In series [4], this compound registered a Cmax of 972 ng/mL. This compound also gave an AUC(0-t) in series [5] of 6110 ng·h/mL.

For the origin of these results see ChEMBL document CHEMBL4118278, “Design, synthesis and biological evaluation of deuterated Vismodegib for improving pharmacokinetic properties” (Bioorg Med Chem Lett, 2018).
